This is an account of results in US9616082B2, “Antitumor agent including irinotecan hydrochloride hydrate” (TAIHO PHARMACEUTICAL CO., LTD., priority 2013, dated 2017).

One series relates to colorectal cancer. The series is described as follows: Combination therapy in a colorectal cancer patient, 28-day cycle schedule. In kind it is in vivo, human. The note with it: 28-day cycle: FTD/TPI two times 5-days' administration with 2-days' rest then 2 weeks rest, CPT-11 once in 2 weeks, side effects appeared strongly. On the procedure: In view of this situation, when a combination therapy comprising repeating a 28-day cycle consisting of two times of 5-days' administration with 2-days' rest of an FTD/TPI combination drug, followed by rest of the drug administration for 2 weeks, and an administration of CPT-11 once in 2 weeks was performed in a colorectal cancer patient on the basis of an administration schedule in which effects of each drug have previously been reported as in Reference Example described later, only about 30% of the predetermined amount of CPT-11 could be administered because side effects appeared strongly. Since antitumor effect is generally proportional to the total dose, the present inventors have studied on administration schedule which can suppress the occurrence of side effects and in which a predetermined amount can be administered.

Series [1] concerns human colon cancer cell line (KM20C). The series is described as follows: Survival of mice intraperitoneally transplanted with KM20C (Reference Example). The series is classed as in vivo, BALB/cA Jcl-nu mice. The note with it: i.v., weekly; for ILS (increase in life span): 6 weeks from Day 3; for Survival time (day) Mean ± SD: 6 weeks from Day 3, n=10. On the procedure:
Cultured cells (1×10^7 cells/mouse) of human colon cancer cell line (KM20C) were intraperitoneally transplanted into 5-6 weeks old BALB/cA Jcl-nu mice after birth, and the mice were assigned to each group so that the mean body weight of each group became equal. The date on which such grouping (n=10) was performed was taken as Day 0.
[…]. Starting the dug administration from Day 3, a 5-days' daily oral administration of the FTD/TPI combination drug with 2-days' rest was performed for 6 weeks, and CPT-11 was administered once in a week from the tail vein for 6 weeks.
As an index of the antitumor effect, the number of survivors of each group of mice and the survival time of each group was compared.

For series [2], the system named is human gastric cancer cell line (SC-2). As to the kind of experiment: Combined administration test, SC-2 tumor (Example 2). The note with it: CPT-11 100 mg/kg/day, Day 1, 15, i.v., q.d.; on Day 15.
The conditions of series [3]: Kiso to Rinsho, (1990), Vol. 24, No. 14, 7-17; cited from earlier work.

Counter-ions that a name gives are not always drawn.

`CCc1c2c(nc3ccc(OC(=O)N4CCC(N5CCCCC5)CC4)cc13)-c1cc3c(c(=O)n1C2)COC(=O)[C@]3(O)CC` [CPT-11, irinotecan hydrochloride hydrate]: in the series on colorectal cancer, the “share of the predetermined amount of CPT-11 that could be administered” value is “about 30%”. For the same compound, in series [1] (CPT-11 80 mg/kg/day), the “ILS (increase in life span)” value worked out at 54.0% and the “Survival time (day) Mean ± SD” value is 61.6 ± 12.6 days. In series [1] (CPT-11 100 mg/kg/day), the “ILS (increase in life span)” value is 81.3% and the “Survival time (day) Mean ± SD” value is 72.5 ± 12.3 days. Moreover, the “TGI (tumor growth inhibition rate)” value in series [2] was determined as 78.2%. Also, in series [3], the “dose at which a death case was reported” value is reported as 111 mg/kg/day.
